The structures appear in SMILES notation. Where two headings read alike, the source gives them in different places.

Data set [1] relates to larvae of the mustard beetle (Phaedon cochleariae). Put plainly: Phaedon test (PHAECO spray treatment). The note with it: Phaedon cochleariae, in Brassica rapa, foliar, read-out: effect in % (beetle larvae killed).
A short description of data set [2]: log P determination by HPLC (EEC Directive 79/831 Annex V.A8). The class given is physicochemical. How it is done:
The measurements were carried out using an Agilent 1100 LC system with a 50*4.6 Zorbax Eclipse C18 1.8 μm column (oven temperature 55° C., flow rate 2.0 ml/min).
The following mobile phases were used:
Mobile phase A: acetonitrile+1000 μl of formic acid/l
Mobile phase B: Millipore water+900 μl of formic acid/l

Data set [3] relates to caterpillars of the armyworm (Spodoptera frugiperda). Put plainly: Spodoptera frugiperda test (SPODFR spray treatment). The class given is in vivo. The note with it: Spodoptera frugiperda, foliar, read-out: effect in % (caterpillars killed). The text has this:
Solvent: 78.0 parts by weight of acetone

The mark [4] stands for this setting: reversed-phase HPLC, Zorbax Eclipse C18 column, determined by HPLC according to EEC Directive 79/831 Annex V.A8, read-out: log P.
The mark [5] stands for this setting: application rate 100 g/ha, maize leaf discs.
Where [6] appears, read: reversed-phase HPLC, Zorbax Eclipse C18 column, by HPLC according to EEC Directive 79/831 Annex V.A8, read-out: log P.

For `Cc1cc(I)cc(C(=O)NCC#N)c1NC(=O)c1cc(Cn2nnc(C(F)(C(F)(F)F)C(F)(F)F)n2)nn1-c1ncccc1Cl` [Example 384], the pest or weed control at 100 g/ha in data set [1] and in data set [3] (in Zea mays) was at least 80% each time. Also, in data set [2] (log P), the chromatographic logP was 3.82.

Take `Cc1cc(I)cc(C(=O)NCC2CC2)c1NC(=O)c1cc(Cn2nnc(C(F)F)n2)nn1-c1ncccc1Cl` [Example 279]: the pest or weed control at 100 g/ha in data set [1] and in data set [3] (in Zea mays) was at least 80% each time. This molecule gave a chromatographic logP in data set [2] (log P) of 3.27.

Take `Cc1cc(I)cc(C(=O)NC2CC2)c1NC(=O)c1cc(Cn2nnc(C(F)(F)F)n2)nn1-c1ncccc1Cl` [Example 69]: the pest or weed control at 100 g/ha in data set [1] and in data set [3] (in Zea mays) was at least 80% throughout. In data set [2] (log P), this molecule gave a chromatographic logP of 3.46.

On to `Cc1cc(C#N)cc(C(=O)NC(C)C)c1NC(=O)c1cc(Cn2nnnc2C(F)(F)F)nn1-c1ncccc1Br` [Example 482], for which the pest or weed control at 100 g/ha in data set [1] and in data set [3] (setting [5]) was at least 80% in each case. Moreover, the chromatographic logP in data set [2] (setting [4]) is 2.74.

As to `CCNC(=O)c1cc(Cl)cc(Cl)c1NC(=O)c1cc(Cn2nnc(C(F)(F)C(F)(F)F)n2)nn1-c1ncccc1Cl` [Example 152], the pest or weed control at 100 g/ha in data set [1] and in data set [3] (in Zea mays) was at least 80% throughout. In addition, the chromatographic logP in data set [2] (log P) stood at 3.57.

On to `CNC(=O)c1cc(Cl)cc(C)c1NC(=O)c1cc(Cn2nnc(C(F)(F)C(F)(F)F)n2)nn1-c1ncccc1Cl` [Example 125], for which the pest or weed control at 100 g/ha in data set [1] and in data set [3] (in Zea mays) was at least 80% in each case. For the same molecule, the chromatographic logP in data set [2] (log P) came out at 3.39.

For `CNC(=O)c1cc(C#N)cc(C)c1NC(=O)c1cc(Cn2nnc(C(F)F)n2)nn1-c1ncccc1Cl` [Example 262], the pest or weed control at 100 g/ha in data set [1] and in data set [3] (in Zea mays) was at least 80% throughout. Further, in data set [2] (log P), the chromatographic logP is 2.17.

For `CC(C)NC(=O)c1cc(Cl)cc(Cl)c1NC(=O)c1cc(Cn2nnnc2C(F)(F)C(F)(F)F)nn1-c1ncccc1Cl` [Example 205], the pest or weed control at 100 g/ha in data set [1] and in data set [3] (in Zea mays) was at least 80% each time. This molecule registered a chromatographic logP in data set [2] (log P) of 3.52.

As for `Cc1cc(C#N)cc(C(=O)NC(C)C)c1NC(=O)c1cc(Cn2nnc(C(F)(C(F)(F)F)C(F)(F)F)n2)nn1-c1ncccc1Cl` [Example 370], the pest or weed control at 100 g/ha in data set [1] and in data set [3] (setting [5]) was at least 80% each time. Also, the chromatographic logP in data set [2] (setting [6]) came to 3.79.

Regarding `Cc1cc(C#N)cc(C(=O)NCC2CCCCC2)c1NC(=O)c1cc(Cn2nnnc2C(F)(F)F)nn1-c1ncccc1Cl` [Example 195], the pest or weed control at 100 g/ha in data set [1] and in data set [3] (in Zea mays) was at least 80% each time. In data set [2] (log P), the chromatographic logP amounted to 3.26.

For the molecule `CNC(=O)c1cc(C#N)cc(C)c1NC(=O)c1cc(Cn2nnc(C(F)(F)F)n2)nn1-c1cccc(Cl)c1Cl` [Example 327], the pest or weed control at 100 g/ha in data set [1] and in data set [3] (setting [5]) was at least 80% each time. Further, the chromatographic logP in data set [2] (setting [6]) was determined as 3.4.

On to `Cc1cc(Br)cc(C(=O)NCC2CC2)c1NC(=O)c1cc(Cn2nnc(C(F)(F)F)n2)nn1-c1ncccc1Cl` [Example 47], for which the pest or weed control at 100 g/ha in data set [1] and in data set [3] (in Zea mays) was at least 80% in each case. In data set [2] (log P), this molecule returned a chromatographic logP of 3.88.

In the case of `Cc1cc(Cl)cc(C(=O)NC(C)C2CC2)c1NC(=O)c1cc(Cn2nnc(C(F)(F)C(F)(F)F)n2)nn1-c1ncccc1Cl` (stereo not drawn) [Example 126], the pest or weed control at 100 g/ha in data set [1] and in data set [3] (in Zea mays) was at least 80% in each case. In data set [2] (log P), the chromatographic logP was found to be 4.25.

For the molecule `Cc1cc(C#N)cc(C(=O)NCc2ccoc2)c1NC(=O)c1cc(Cn2nnc(C(F)(F)F)n2)nn1-c1ncccc1Cl` [Example 99], the pest or weed control at 100 g/ha in data set [1] and in data set [3] (in Zea mays) was at least 80% each time. In data set [2] (log P), this molecule yielded a chromatographic logP of 3.09.

Take `CC(C)NC(=O)c1cc(Cl)cc(Cl)c1NC(=O)c1cc(Cn2nnc(C(F)(C(F)(F)F)C(F)(F)F)n2)nn1-c1ncccc1Cl` [Example 389]: the pest or weed control at 100 g/ha in data set [1] and in data set [3] (in Zea mays) was at least 80% throughout. Also, the chromatographic logP in data set [2] (log P) was determined as 4.12.

Regarding `Cc1cc(I)cc(C(=O)NC(C)C2CC2)c1NC(=O)c1cc(Cn2nnc(C(F)(F)F)n2)nn1-c1ncccc1Cl` (stereo not drawn) [Example 68], the pest or weed control at 100 g/ha in data set [1] and in data set [3] (in Zea mays) was at least 80% throughout. This molecule showed a chromatographic logP in data set [2] (log P) of 4.01.

In the case of `Cc1cc(I)cc(C(N)=O)c1NC(=O)c1cc(Cn2nnc(C(F)(F)F)n2)nn1-c1ncccc1C(F)(F)F` [Example 250], the pest or weed control at 100 g/ha in data set [1] and in data set [3] (setting [5]) was at least 80% in each case. Further, the chromatographic logP in data set [2] (setting [6]) came out at 3.16.

On to `Cc1cc(F)cc(C(=O)NC(C)C)c1NC(=O)c1cc(Cn2nnc(C(F)(F)F)n2)nn1-c1ncccc1Cl` [Example 40], for which the pest or weed control at 100 g/ha in data set [1] and in data set [3] (in Zea mays) was at least 80% throughout. The molecule also came in with a chromatographic logP in data set [2] (log P) of 3.11.

As to `Cc1cc(Cl)cc(C(=O)NCC(C)C)c1NC(=O)c1cc(Cn2nnc(C(F)(F)F)n2)nn1-c1ncccc1Cl` [Example 37], the pest or weed control at 100 g/ha in data set [1] and in data set [3] (in Zea mays) was at least 80% each time. The same molecule registered a chromatographic logP in data set [2] (log P) of 3.78.

Consider `Cc1cc(Cl)cc(C(=O)NC(C)(C)C)c1NC(=O)c1cc(Cn2nnc(C(F)(F)C(F)(F)F)n2)nn1-c1ccccc1Cl` [Example 535], for which the pest or weed control at 100 g/ha in data set [1] and in data set [3] (setting [5]) was at least 80% throughout. Moreover, in data set [2] (setting [4]), the chromatographic logP is 4.73.

On to `CCNC(=O)c1cc(I)cc(C)c1NC(=O)c1cc(Cn2nnnc2C(F)(F)F)nn1-c1ncccc1C(F)(F)F` [Example 457], for which the pest or weed control at 100 g/ha in data set [1] and in data set [3] (setting [5]) was at least 80% throughout. Besides, the chromatographic logP in data set [2] (setting [4]) came to 3.3.

As to `Cc1cc(I)cc(C(=O)NC(C)(C)C)c1NC(=O)c1cc(Cn2nnnc2C(F)(F)F)nn1-c1ncccc1Br` [Example 496], the pest or weed control at 100 g/ha in data set [1] and in data set [3] (setting [5]) was at least 80% each time. In data set [2] (setting [4]), the chromatographic logP came to 3.73.

`Cc1cc(C#N)cc(C(=O)NCC(F)(F)F)c1NC(=O)c1cc(Cn2nnnc2C(F)(F)F)nn1-c1ccccc1Cl` [Example 538]: the pest or weed control at 100 g/ha in data set [1] and in data set [3] (setting [5]) was at least 80% each time. Further, the chromatographic logP in data set [2] (setting [4]) was 3.2.

Consider `Cc1cc(C#N)cc(C(=O)NCCCN)c1NC(=O)c1cc(Cn2nnc(C(F)(F)F)n2)nn1-c1ncccc1Cl` [Example 124], for which the pest or weed control at 100 g/ha in data set [1] and in data set [3] (in Zea mays) was at least 80% throughout. In data set [2] (log P), this molecule gave a chromatographic logP of 1.63.

Turning to `Cc1cc(Cl)cc(C(=O)NCC#N)c1NC(=O)c1cc(Cn2nnc(C(F)F)n2)nn1-c1ncccc1Cl` [Example 261], the pest or weed control at 100 g/ha in data set [1] and in data set [3] (in Zea mays) was at least 80% in each case. Further, the chromatographic logP in data set [2] (log P) was determined as 2.5.

As for `Cc1cc(C#N)cc(C(=O)NC(C)C)c1NC(=O)c1cc(Cn2nnc(C(F)(F)F)n2)nn1-c1ncccc1Br` [Example 323], the pest or weed control at 100 g/ha in data set [1] and in data set [3] (setting [5]) was at least 80% each time. For the same molecule, in data set [2] (setting [6]), the chromatographic logP was 3.1.

For `Cc1cc(C#N)cc(C(=O)NC2CCCC2)c1NC(=O)c1cc(Cn2nnc(C(F)(F)F)n2)nn1-c1ccccc1Cl` [Example 401], the pest or weed control at 100 g/ha in data set [1] and in data set [3] (setting [5]) was at least 80% in each case. Besides, the chromatographic logP in data set [2] (setting [4]) is 3.84.

The values are drawn from patent US8324390B2, “Tetrazole-substituted anthranilamides as pesticides” (Bayer CropScience AG, priority 2008, dated 2012).
